Measured values as given in paper PMC4576993 (Leukemia, 2011).

Experiment: Renal excretion of vosaroxin and metabolites in urine, 24 h after first dose
Type: in vivo, human
Conditions: 18 and 27 mg/m^2 weekly, eight patients

- Average renal excretion of the total dose infused (24 h after first dose): 0.99%
- Detection in urine (first dose): the only metabolite detected in urine
- Ratio of N-desmethyl-vosaroxin to vosaroxin excretion in urine (first dose, coefficient of variation 40%): 0.43
SMILES: CO[C@H]1CN(c2ccc3c(=O)c(C(=O)O)cn(-c4nccs4)c3n2)C[C@@H]1N [N-desmethyl-vosaroxin]
